Assay: maxima of UV-A and UV-B absorption of quinoxaline derivatives in 2-propanol
Format: physicochemical
Conditions: 1 mg of substance per 100 ml of solvent; for UV-A (400 320 nm) Max. abs.: absorbance at UV-A maximum; for UV-A (400 320 nm) λ[nm]: wavelength of UV-A maximum; for UV-B (280 320 nm) Max. abs.: absorbance at UV-B maximum; for UV-B (280 320 nm) λ[nm]: wavelength of UV-B maximum
Description: The measurement was carried out in 2-propanol at a concentration of 1 mg of substance per 100 ml of solvent.

Row | Structure (SMILES) | UV-A (400 320 nm) Max. abs. | UV-A (400 320 nm) λ[nm] | UV-B (280 320 nm) Max. abs. | UV-B (280 320 nm) λ[nm]
1 | c1ccc(-c2cc3nc4ccccc4nc3[nH]2)cc1 | 0.7158 | 367.0 nm | 0.8710 | 268.0 nm
2 | c1ccc2nc3[nH]cnc3nc2c1 | 0.5227 | 328.0 nm | – | –
3 | CC(=O)c1ccc(-n2c([SiH2]C(C)C)cc3nc4ccccc4nc32)cc1 | 0.5774 | 403.0 nm | 0.4246 | 318.0 nm
4 | O=C(O)c1ccc(-n2c(-c3ccccc3)cc3nc4ccccc4nc32)cc1 | 0.3685 | 358.0 nm | – | –
5 | Cc1nc2nc3ccccc3nc2[nH]1 | 0.5824 | 327.5 nm | – | –
6 | FC(F)(F)c1cc(-c2nc3nc4ccccc4nc3[nH]2)cc(C(F)(F)F)c1 | 0.7037 | 358.0 nm | – | –
7 | CC(=O)c1ccc(-n2c(-c3ccccc3)cc3nc4ccccc4nc32)cc1 | 0.4067 | 359.0 nm | – | –

More lines, main results first:

Row | UV-A (400 320 nm) Max. abs. | UV-A (400 320 nm) λ[nm] | Structure (SMILES) | UV-B (280 320 nm) Max. abs. | UV-B (280 320 nm) λ[nm]
8 | 0.5381 | 338.0 nm | c1ccc2nc3[nH]ccc3nc2c1 | – | –
9 | 0.6290 | 330.0 nm | CC(C)(C)c1nc2nc3ccccc3nc2[nH]1 | – | –
10 | 0.4875 | 327.5 nm | FC(F)(F)c1nc2nc3ccccc3nc2[nH]1 | – | –

Source: US7101537B2, “Tricyclic quinoxaline and quinoline derivatives as a UV filter” (Merck Patentgesellschaft, priority 2001, dated 2006)
